Reference: US20140005163A1 (NOVARTIS AG, priority 2010, published 2014)

What was measured:
[1] = molecular target: T1, PI3K delta (Homo sapiens, UniProt O00329); assay: PI3K delta kinase assay (Kinase-Glo luminescence); assay type: biochemical
T1 construct: for the full-length p110-d subunit are generated and fused by overlapping PCR; p85(iSH2) fusion partner (see partner chain) (N); His tag (C); made in house; host or cells: baculovirus; Tn5 (Trichoplusia ni) or TiniPro insect cells
Method in brief: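 Kinase-Glo luminescence read-out of ATP remaining after 60 min at RT. Enzyme: 10 nM BV1060 (p85 iSH2–p110δ fusion, His-tagged); substrate 10 μg/mL PI, ATP 1 μM final; Tris pH 7.5 buffer with MgCl2, NaCl, CHAPS, DTT. IC50 from 4-parameter logistic fit over 8 concentrations.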

[2] = molecular target: T2, PI3K beta (Homo sapiens, UniProt P42338); assay: PI3K beta kinase assay (Kinase-Glo luminescence); assay type: biochemical
T2 construct: for the full-length p110-b subunit are generated and fused by overlapping PCR; p85(iSH2) fusion partner (see partner chain) (N); His tag (C); made in house; host or cells: baculovirus; Tn5 (Trichoplusia ni) or TiniPro insect cells
T2 sequence (P42338 with tags, fused parts or gaps limits assumed): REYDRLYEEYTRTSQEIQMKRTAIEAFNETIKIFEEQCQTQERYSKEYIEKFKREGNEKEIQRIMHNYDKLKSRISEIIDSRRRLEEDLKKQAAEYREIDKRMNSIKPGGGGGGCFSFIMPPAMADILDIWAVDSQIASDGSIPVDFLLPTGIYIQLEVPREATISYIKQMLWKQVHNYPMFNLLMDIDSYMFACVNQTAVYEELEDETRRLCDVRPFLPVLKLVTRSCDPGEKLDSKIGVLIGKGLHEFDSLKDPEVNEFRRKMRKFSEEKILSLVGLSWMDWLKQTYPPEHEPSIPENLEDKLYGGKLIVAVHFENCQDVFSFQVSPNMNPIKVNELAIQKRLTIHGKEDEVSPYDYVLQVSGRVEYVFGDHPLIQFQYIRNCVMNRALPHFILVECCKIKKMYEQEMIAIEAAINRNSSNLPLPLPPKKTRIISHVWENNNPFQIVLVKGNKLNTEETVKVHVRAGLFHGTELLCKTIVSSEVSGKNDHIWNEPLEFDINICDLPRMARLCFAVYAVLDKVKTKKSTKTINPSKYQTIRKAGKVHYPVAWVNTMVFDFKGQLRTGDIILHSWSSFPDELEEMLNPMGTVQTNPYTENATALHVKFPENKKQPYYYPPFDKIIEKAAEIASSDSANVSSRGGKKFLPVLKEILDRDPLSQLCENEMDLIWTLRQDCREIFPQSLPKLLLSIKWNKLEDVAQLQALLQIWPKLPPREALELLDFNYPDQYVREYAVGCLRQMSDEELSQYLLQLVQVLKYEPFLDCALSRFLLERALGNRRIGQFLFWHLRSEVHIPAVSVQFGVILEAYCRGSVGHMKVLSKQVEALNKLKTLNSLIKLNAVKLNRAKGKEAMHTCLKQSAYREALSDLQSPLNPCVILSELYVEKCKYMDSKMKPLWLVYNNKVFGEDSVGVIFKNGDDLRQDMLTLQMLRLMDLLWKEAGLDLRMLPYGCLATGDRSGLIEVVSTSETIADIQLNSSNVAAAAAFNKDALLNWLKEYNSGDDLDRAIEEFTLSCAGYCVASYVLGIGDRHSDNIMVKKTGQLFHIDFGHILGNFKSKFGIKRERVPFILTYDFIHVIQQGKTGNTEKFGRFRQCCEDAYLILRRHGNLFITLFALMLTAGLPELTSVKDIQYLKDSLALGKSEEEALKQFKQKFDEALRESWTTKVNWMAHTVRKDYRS
Method in brief: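 p110β full-length/p85 iSH2 construct (BV-949), 25 nM, with 1 μM ATP and 10 μg/mL phosphatidylinositol in 10 mM Tris pH 7.5, 3 mM MgCl2, 50 mM NaCl, 0.05% CHAPS, 1 mM DTT. 60 min at room temperature; ATP remaining read by Kinase-Glo luminescence. IC50 from 8-point four-parameter logistic fit.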

[3] = molecular target: T3, PI3K alpha (Homo sapiens, UniProt P42336); assay: PI3K alpha kinase assay (Kinase-Glo luminescence); assay type: biochemical
T3 construct: p85(iSH2) fusion partner (see partner chain) (N); His tag (C); made in house; host or cells: baculovirus; Tn5 (Trichoplusia ni) or TiniPro insect cells
T3 sequence (P42336 with tags, fused parts or gaps limits assumed): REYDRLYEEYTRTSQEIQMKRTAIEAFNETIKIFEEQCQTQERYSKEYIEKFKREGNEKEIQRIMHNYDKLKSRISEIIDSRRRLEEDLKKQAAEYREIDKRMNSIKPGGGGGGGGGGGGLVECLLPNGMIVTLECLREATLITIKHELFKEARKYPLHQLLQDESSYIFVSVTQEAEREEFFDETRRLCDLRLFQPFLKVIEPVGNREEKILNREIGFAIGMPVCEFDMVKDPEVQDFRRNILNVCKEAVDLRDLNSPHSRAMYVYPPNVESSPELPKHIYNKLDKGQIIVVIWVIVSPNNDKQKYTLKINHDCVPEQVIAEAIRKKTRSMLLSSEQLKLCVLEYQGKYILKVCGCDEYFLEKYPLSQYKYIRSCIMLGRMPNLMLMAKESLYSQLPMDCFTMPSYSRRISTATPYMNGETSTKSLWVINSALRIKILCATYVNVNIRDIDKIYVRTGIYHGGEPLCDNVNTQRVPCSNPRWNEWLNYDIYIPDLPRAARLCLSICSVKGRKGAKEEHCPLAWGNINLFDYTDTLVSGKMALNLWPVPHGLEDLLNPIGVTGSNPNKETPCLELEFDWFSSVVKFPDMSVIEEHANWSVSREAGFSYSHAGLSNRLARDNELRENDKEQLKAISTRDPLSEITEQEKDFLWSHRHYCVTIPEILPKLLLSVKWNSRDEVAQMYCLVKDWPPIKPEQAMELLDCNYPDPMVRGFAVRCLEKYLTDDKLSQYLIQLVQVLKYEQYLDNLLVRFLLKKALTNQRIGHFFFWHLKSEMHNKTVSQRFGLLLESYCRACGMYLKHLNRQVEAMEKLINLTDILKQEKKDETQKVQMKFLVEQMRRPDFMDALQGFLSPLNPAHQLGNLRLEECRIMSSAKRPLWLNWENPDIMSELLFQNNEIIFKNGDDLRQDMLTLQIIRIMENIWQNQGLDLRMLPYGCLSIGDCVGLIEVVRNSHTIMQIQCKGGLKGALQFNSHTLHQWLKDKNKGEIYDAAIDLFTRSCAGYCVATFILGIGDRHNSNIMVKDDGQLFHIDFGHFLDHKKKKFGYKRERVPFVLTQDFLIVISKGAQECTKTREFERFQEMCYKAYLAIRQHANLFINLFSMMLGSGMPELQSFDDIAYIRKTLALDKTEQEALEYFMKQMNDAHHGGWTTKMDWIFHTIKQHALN
Method in brief: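 Read-out: Kinase-Glo luminescence of ATP left after 60 min at room temperature. Conditions: 10 nM PI3Kα (EMV B1075), 1 μM ATP, 10 μg/mL PI substrate, Tris pH 7.5 buffer with MgCl2, NaCl, CHAPS and DTT. IC50s fitted with a four-parameter logistic model.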

[4] = molecular target: T4, mTOR (Homo sapiens, UniProt P42345); assay: Biochemical assay for m-TOR by TR-FRET; conditions: 8 μM ATP, 400 nM GFP-4EBP1, 0.5 nM mTOR
T4 construct: purchased Invitrogen Corporation (Carlsbad/CA, USA) PV4753
T4 sequence (P42345 1360-2549 limits assumed): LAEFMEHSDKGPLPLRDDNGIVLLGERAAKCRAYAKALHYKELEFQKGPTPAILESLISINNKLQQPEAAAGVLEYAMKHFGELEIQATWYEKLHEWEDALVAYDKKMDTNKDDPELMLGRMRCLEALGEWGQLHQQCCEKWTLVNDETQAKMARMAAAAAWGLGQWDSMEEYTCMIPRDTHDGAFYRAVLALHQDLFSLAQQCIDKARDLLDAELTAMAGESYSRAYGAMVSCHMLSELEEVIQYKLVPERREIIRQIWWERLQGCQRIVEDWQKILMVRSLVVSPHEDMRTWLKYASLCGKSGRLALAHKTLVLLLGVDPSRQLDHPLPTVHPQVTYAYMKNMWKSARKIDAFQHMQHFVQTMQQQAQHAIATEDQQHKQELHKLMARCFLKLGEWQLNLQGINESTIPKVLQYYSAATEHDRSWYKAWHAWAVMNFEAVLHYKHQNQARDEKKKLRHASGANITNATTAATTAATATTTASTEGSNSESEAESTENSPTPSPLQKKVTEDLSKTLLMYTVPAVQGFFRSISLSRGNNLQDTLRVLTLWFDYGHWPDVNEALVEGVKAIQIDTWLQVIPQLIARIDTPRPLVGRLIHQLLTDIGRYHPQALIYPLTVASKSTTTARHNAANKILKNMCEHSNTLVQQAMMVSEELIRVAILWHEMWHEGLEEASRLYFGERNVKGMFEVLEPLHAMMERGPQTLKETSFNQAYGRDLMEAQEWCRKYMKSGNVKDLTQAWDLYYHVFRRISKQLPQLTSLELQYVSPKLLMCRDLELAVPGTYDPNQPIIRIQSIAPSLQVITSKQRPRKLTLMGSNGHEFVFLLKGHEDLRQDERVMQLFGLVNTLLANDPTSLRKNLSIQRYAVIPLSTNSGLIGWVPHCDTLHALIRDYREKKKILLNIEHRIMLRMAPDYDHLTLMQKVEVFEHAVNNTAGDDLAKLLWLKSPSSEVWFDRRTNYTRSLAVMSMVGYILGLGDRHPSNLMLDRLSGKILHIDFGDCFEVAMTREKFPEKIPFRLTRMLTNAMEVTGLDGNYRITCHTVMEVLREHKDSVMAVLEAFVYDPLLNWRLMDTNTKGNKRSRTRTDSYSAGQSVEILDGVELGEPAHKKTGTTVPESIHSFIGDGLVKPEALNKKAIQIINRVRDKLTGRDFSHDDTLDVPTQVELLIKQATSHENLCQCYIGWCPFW
Method in brief: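 mTOR (0.5 nM) was incubated at rt with ATP (8 μM final) and GFP-4EBP1 (400 nM final) in 50 mM HEPES pH 7.5, 10 mM MnCl2, 50 mM NaCl, 1 mM EGTA, 1 mM DTT. EDTA stop with Tb3+-anti-p4EBP1 [pThr46] antibody (0.5 nM); TR-FRET read 15 min later.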

T1 sequence (O00329 with tags, fused parts or gaps limits assumed): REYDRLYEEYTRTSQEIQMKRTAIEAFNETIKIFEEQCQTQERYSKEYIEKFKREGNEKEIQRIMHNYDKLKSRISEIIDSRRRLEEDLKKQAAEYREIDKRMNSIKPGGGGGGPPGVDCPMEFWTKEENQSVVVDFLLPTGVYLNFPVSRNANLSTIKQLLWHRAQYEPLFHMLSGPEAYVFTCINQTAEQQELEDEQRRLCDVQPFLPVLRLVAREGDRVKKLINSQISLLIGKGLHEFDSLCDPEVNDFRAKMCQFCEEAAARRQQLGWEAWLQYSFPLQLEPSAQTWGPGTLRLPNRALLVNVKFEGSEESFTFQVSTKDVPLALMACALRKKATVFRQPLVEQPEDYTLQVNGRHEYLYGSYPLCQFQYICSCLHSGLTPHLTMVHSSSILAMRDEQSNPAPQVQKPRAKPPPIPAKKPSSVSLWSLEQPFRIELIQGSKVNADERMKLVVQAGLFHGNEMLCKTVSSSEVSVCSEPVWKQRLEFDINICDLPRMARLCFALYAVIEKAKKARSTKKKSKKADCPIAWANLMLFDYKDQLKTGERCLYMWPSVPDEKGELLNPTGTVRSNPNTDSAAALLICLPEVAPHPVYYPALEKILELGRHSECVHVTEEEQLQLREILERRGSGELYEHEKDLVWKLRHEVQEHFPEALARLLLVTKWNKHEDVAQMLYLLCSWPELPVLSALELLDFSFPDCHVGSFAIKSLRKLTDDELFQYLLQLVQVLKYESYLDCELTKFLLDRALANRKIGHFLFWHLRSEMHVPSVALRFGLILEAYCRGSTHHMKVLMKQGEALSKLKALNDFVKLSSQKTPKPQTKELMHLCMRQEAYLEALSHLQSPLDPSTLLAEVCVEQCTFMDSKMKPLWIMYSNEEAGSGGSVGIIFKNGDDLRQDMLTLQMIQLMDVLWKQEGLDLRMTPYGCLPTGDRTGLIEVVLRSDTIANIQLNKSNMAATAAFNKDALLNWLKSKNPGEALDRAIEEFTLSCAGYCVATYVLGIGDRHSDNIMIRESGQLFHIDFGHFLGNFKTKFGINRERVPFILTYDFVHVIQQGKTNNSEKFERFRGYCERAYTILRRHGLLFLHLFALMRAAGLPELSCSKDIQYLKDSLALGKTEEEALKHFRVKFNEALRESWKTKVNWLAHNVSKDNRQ

| Structure (SMILES) | IC50 [1] | IC50 [2] | IC50 [3] | IC50 [4] |
| --- | --- | --- | --- | --- |
| COc1ccc(-c2ccc3ncc4c(c3c2)n(-c2cc(C)nn2C)c(=O)n4C)cc1OC [Example 1.4, 8-(3,4-Dimethoxy-phenyl)-1-(2,5-dimethyl-2H-pyrazol-3-yl)-3-methyl-1,3-dihydro-imidazo[4,5-c]quinolin-2-one] | 83 nM | 378 nM | 39 nM | 87 nM |
| Cc1nn(C)cc1-n1c(=O)n(C)c2cnc3ccc(-c4ccc(N5CCC5)nc4)cc3c21 [Example 5.1, 8-(6-Azetidin-1-yl-pyridin-3-yl)-1-(1,3-dimethyl-1H-pyrazol-4-yl)-3-methyl-1,3-dihydro-imidazo[4,5-c]quinolin-2-one] | 144 nM | 787 nM | 30 nM | 18 nM |
| CNC(=O)c1cc(-c2ccc3ncc4c(c3c2)n(-c2cn(C)nc2C)c(=O)n4C)cnc1OC [Example 125.1, 5-[1-(1,3-Dimethyl-1H-pyrazol-4-yl)-3-methyl-2-oxo-2,3-dihydro-1H-imidazo[4,5-c]quinolin-8-yl]-2-methoxy-N-methyl-nicotinamide] | 26 nM | 61 nM | 28 nM | 51 nM |
| CCn1c(=O)n(-c2cn(C)nc2C)c2c3cc(-c4cncc(N)c4)ccc3ncc21 [Example 245, 8-(5-Amino-pyridin-3-yl)-1-(1,3-dimethyl-1H-pyrazol-4-yl)-3-ethyl-1,3-dihydro-imidazo[4,5-c]quinolin-2-one] | 30 nM | 162 nM | 22 nM | 76 nM |
| Cn1nccc1-n1c(=O)n(C)c2cnc3ccc(-c4ccc(NCCO)nc4)cc3c21 [Example 21.1, 8-[6-(2-Hydroxy-ethylamino)-pyridin-3-yl]-3-methyl-1-(2-methyl-2H-pyrazol-3-yl)-1,3-dihydro-imidazo[4,5-c]quinolin-2-one] | 116 nM | 946 nM | 272 nM | 201 nM |
| CCOc1ccc(-c2ccc3ncc4c(c3c2)n(-c2c(C)nn(C)c2C)c(=O)n4C)cc1OCC [Example 27.2, 8-(3,4-Diethoxy-phenyl)-3-methyl-1-(1,3,5-trimethyl-1H-pyrazol-4-yl)-1,3-dihydro-imidazo[4,5-c]quinolin-2-one] | 50 nM | 173 nM | 48 nM | 363 nM |
| Cc1cncc(-c2ccc3ncc4c(c3c2)n(-c2cn(C)nc2C)c(=O)n4C)c1 [Example 24, 1-(1,3-Dimethyl-1H-pyrazol-4-yl)-3-methyl-8-(5-methyl-pyridin-3-yl)-1,3-dihydro-imidazo[4,5-c]quinolin-2-one] | 41 nM | 26 nM | 10 nM | 37 nM |
| CCOc1ccc(-c2ccc3ncc4c(c3c2)n(-c2cn(CC)nc2C)c(=O)n4C)cc1OC [Example 29.1, 8-(4-Ethoxy-3-methoxy-phenyl)-1-(1-ethyl-3-methyl-1H-pyrazol-4-yl)-3-methyl-1,3-dihydro-imidazo[4,5-c]quinolin-2-one] | 27 nM | 57 nM | 24 nM | 26 nM |
| Cc1nn(C)cc1-n1c(=O)n(C)c2cnc3ccc(-c4cncc(N(C)C)c4)cc3c21 [Example 178, 8-(5-Dimethylamino-pyridin-3-yl)-1-(1,3-dimethyl-1H-pyrazol-4-yl)-3-methyl-1,3-dihydro-imidazo[4,5-c]quinolin-2-one] | 85 nM | 274 nM | 82 nM | 15 nM |

Stronger by IC50 [1], values ahead:

| IC50 [1] | IC50 [2] | IC50 [3] | IC50 [4] | Structure (SMILES) |
| --- | --- | --- | --- | --- |
| 21 nM | 51 nM | 26 nM | 95 nM | Cc1nn(C)c(C)c1-n1c(=O)n(C)c2cnc3ccc(-c4cnc(N)c(Cl)c4)cc3c21 [Example 148.1, 8-(6-Amino-5-chloro-pyridin-3-yl)-3-methyl-1-(1,3,5-trimethyl-1H-pyrazol-4-yl)-1,3-dihydro-imidazo[4,5-c]quinolin-2-one] |
| 11 nM | 178 nM | 13 nM | 34 nM | CCn1cc(-n2c(=O)n(C)c3cnc4ccc(-c5cnc(COC)c(OC(C)C)c5)cc4c32)c(C)n1 [Example 191.2, 1-(1-Ethyl-3-methyl-1H-pyrazol-4-yl)-8-(5-isopropoxy-6-methoxymethyl-pyridin-3-yl)-3-methyl-1,3-dihydro-imidazo[4,5-c]quinolin-2-one] |
| 9 nM | 19 nM | 5 nM | 26 nM | COCCOc1cncc(-c2ccc3ncc4c(c3c2)n(-c2cn(C)nc2Cl)c(=O)n4C)c1 [Example 59.2, 1-(3-Chloro-1-methyl-1H-pyrazol-4-yl)-8-[5-(2-methoxy-ethoxy)-pyridin-3-yl]-3-methyl-1,3-dihydro-imidazo[4,5-c]quinolin-2-one] |
| 9 nM | 44 nM | 20 nM | 5 nM | COc1ncc(-c2ccc3ncc4c(c3c2)n(-c2cn(C)nc2C)c(=O)n4C)cc1N [Example 127, 8-(5-Amino-6-methoxy-pyridin-3-yl)-1-(1,3-dimethyl-1H-pyrazol-4-yl)-3-methyl-1,3-dihydro-imidazo[4,5-c]quinolin-2-one] |
| 7 nM | 40 nM | 8 nM | 6 nM | Cc1nn(C)cc1-n1c(=O)n(C)c2cnc3ccc(-c4cnc5ccccc5c4)cc3c21 [Example 38, 1-(1,3-Dimethyl-1H-pyrazol-4-yl)-3-methyl-8-quinolin-3-yl-1,3-dihydro-imidazo[4,5-c]quinolin-2-one] |
| 7 nM | 38 nM | 26 nM | 34 nM | CCNc1ncc(-c2ccc3ncc4c(c3c2)n(-c2cn(C)nc2C)c(=O)n4C)cc1COC [Example 206.1, 1-(1,3-Dimethyl-1H-pyrazol-4-yl)-8-(6-ethylamino-5-methoxymethyl-pyridin-3-yl)-3-methyl-1,3-dihydro-imidazo[4,5-c]quinolin-2-one] |
| 6 nM | 42 nM | 22 nM | < 3 nM | CNc1cncc(-c2ccc3ncc4c(c3c2)n(-c2cn(C(C)C)nc2C)c(=O)n4C)c1 [Example 180.2, 1-(1-Isopropyl-3-methyl-1H-pyrazol-4-yl)-3-methyl-8-(5-methylamino-pyridin-3-yl)-1,3-dihydro-imidazo[4,5-c]quinolin-2-one] |
| 6 nM | 76 nM | 15 nM | 7 nM | CCc1ncc(-c2ccc3ncc4c(c3c2)n(-c2cn(C)nc2C)c(=O)n4C)cc1N [Example 208, 8-(5-Amino-6-ethyl-pyridin-3-yl)-1-(1,3-dimethyl-1H-pyrazol-4-yl)-3-methyl-1,3-dihydro-imidazo[4,5-c]quinolin-2-one] |
| 6 nM | 23 nM | 14 nM | 32 nM | Cc1nn(C)cc1-n1c(=O)n(C)c2cnc3ccc(-c4cncc(C5(C#N)CCC5)c4)cc3c21 [Example 221.1, 1-{5-[1-(1,3-Dimethyl-1H-pyrazol-4-yl)-3-methyl-2-oxo-2,3-dihydro-1H-imidazo[4,5-c]quinolin-8-yl]-pyridin-3-yl}-cyclobutanecarbonitrile] |
| 4 nM | 30 nM | 9 nM | < 3 nM | CCc1ncc(-c2ccc3ncc4c(c3c2)n(-c2cn(C)nc2C)c(=O)n4C)cc1O [Example 188, 1-(1,3-Dimethyl-1H-pyrazol-4-yl)-8-(6-ethyl-5-hydroxy-pyridin-3-yl)-3-methyl-1,3-dihydro-imidazo[4,5-c]quinolin-2-one] |
| 3 nM | 28 nM | 3 nM | 6 nM | Cn1cc(-n2c(=O)n(C)c3cnc4ccc(-c5ccc(CO)nc5)cc4c32)c(Cl)n1 [Example 16.5, 1-(3-chloro-1-methyl-1H-pyrazol-4-yl)-8-(6-hydroxymethyl-pyridin-3-yl)-3-methyl-1,3-dihydro-imidazo[4,5-c]quinolin-2-one] |
| 3 nM | 10 nM | 6 nM | 5 nM | Cc1ncc(-c2ccc3ncc4c(c3c2)n(-c2cn(C)nc2C)c(=O)n4C)cc1NS(C)(=O)=O [Example 76, N-{5-[1-(1,3-Dimethyl-1H-pyrazol-4-yl)-3-methyl-2-oxo-2,3-dihydro-1H-imidazo[4,5-c]quinolin-8-yl]-2-methyl-pyridin-3-yl}-methanesulfonamide] |
